{"source": "patent US6569877B2", "about": "“Therapeutic and prophylactic agents for neoplasms” (Sankyo Company, Limited, priority 1999, dated 2003)", "key": {"[1]": {"system": "Human MKN-74 stomach cancer cells", "experiment": "Antitumor effects on human MKN-74 stomach cancer cells (subcutaneous xenograft in nude mice)", "type": "in vivo", "text": "A piece (5 mm×5 mm) of human stomach affected by MKN-74 strain of stomach cancer was subcutaneously inoculated in a group of 10 BALB/c nude mice (female, 6 weeks old). The test compounds were suspended in 5% emulsified saline containing 2.5% dimethylacetamide. They were orally administered once a day for 24 times in total, i.e., from the first day after inoculation to the 4th day, from the 7th to the 11th day, from the 14th to the 18th day, from the 21st to the 25th day and from the 28th to the 32nd day after the inoculation.\nThe short diameter (mm) and the long diameter (mm) of the tumor were measured with an electronic digital caliper square on the 35th day after inoculation. The efficacy of the test compound was evaluated by calculation of the inhibitory growth rate of the tumor (GI %) in a similar to those described above in Test Example 2."}, "[2]": {"system": "Human large intestine cancer cells COL-2-JCK", "experiment": "Antitumor effects upon human large intestine cancer cells COL-2-JCK (colony formation, crystal violet staining)", "type": "cell-based", "conditions": "300 cells/well, 10 days incubation, control (0) 3311", "description": "Human cancer cells from the large intestine, COL-2-JCK (moderately differentiated adenocarcinoma), purchased from the Central Institute for Experimental Animals, were employed in the Test Example of the present invention as the solid tumor strain. The proliferated CLO-2-JCK cells were cultured and used for the experiments in our laboratory. In order to subculture the strain of the cancer cells and to test compounds in the experiments, the cancer cells were cultured with D-MEM/F-12 culture medium containing bovine fetal serum (manufactured by GIBCO Co.).\nThe test was carried out as follows: COL-2-JCK cells growed confluently on a petri dish for culture of cells (inner diameter 100 mm) were removed from the petri dish by using EDTA and 0.05% trypsin solution, and diluted to 100 cells/ml cell density with the culture medium. 3 ml of the diluted cell solution was then placed into each well of a 6-well plate (300 cells/well). At the same time, the test compound dissolved in DMSO solution was added so as to be 1, 10, 100 nM, 1 and 10 μM of the final concentrations to each well. The final concentration of the DMSO solution was adjusted to 0.1%. DMSO solution (0.1%) alone was placed in wells of the control group. After addition of the test compound, the cells were incubated in the presence of 5% CO2 gas for 10 days at 37° C. After incubation was terminated, each well containing the cells was washed once with Dulbecco phosphate buffer saline (bivalent ion minus). Then 1 ml of 10% neutral formalin solution containing 0.02% crystal violet was added to the well and left for 5 minutes in order to stain the cells. After the dye was fixed, the cells were washed with water and air-dried. The total colony area (mm^2) of dye-fixed tumor cells was calculated by using an image analyzer of PCA-11 (manufactured by SystemSience Co.)."}, "[3]": {"system": "Human H69 lung cancer cells", "experiment": "Antitumor effect on human H69 lung cancer cells (subcutaneous xenograft in nude mice)", "type": "in vivo", "conditions": "H69 in BALB/c nude mice; 10 mg/kg orally once a day, 24 times; tumor volume on the 39th day after inoculation", "text": "A piece (5 mm×5 mm) of human lung affected by H69 strain of lung cancer was subcutaneously inoculated in a group of 10 BALB/c nude mice (female, 6 weeks old). The test compounds were suspended in 5% emulsified saline containing 2.5% dimethylacetamide. They were orally administered once a day for 24 times in total, i.e., from the first day after the inoculation to the 4th day, from the 7th to the 11th day, from the 14th to the 18th day and from the 21st to the 25th day and from the 28th to the 32nd day after inoculation.\nThe short diameter (mm) and the long diameter (mm) of the tumor were measured with an electronic digital caliper square on the 39th day after inoculation. The efficacy of the test compound was evaluated by calculation of the inhibitory growth rate of the tumor (GI %) according to the following equation: […]\nA: average tumor volume on the 39th day after inoculation in the group treated with the test compound (*)\nB: an average tumor volume on the 39th day after inoculation in the non-treated group (*)\n*: The tumor volume indicates ½×(long diameter of the tumor)×(short diameter of the tumor)^2."}}, "data": [{"smiles": "COc1ccc2nc(COc3ccc(CC4SC(=O)NC4=O)cc3)n(C)c2c1.Cl", "note": "(centres unmarked) [Example 1, 5-[4-(6-Methoxy-1-methyl-1H-benzimidazol-2-ylmethoxy)benzyl]thiazolidine-2,4-dione hydrochloride]", "values": [{"measurement": "GI (%) inhibitory growth rate of the tumor", "setting": "[1]; MKN-74 in BALB/c nude mice, 10 mg/kg orally once a day, 24 times, tumor volume on the 35th day after inoculation", "result": 76, "unit": "%"}, {"measurement": "suppression of proliferation of human stomach cancer cells (in words)", "setting": "[1]; as shown by Test Example 3", "result": "suppressed the proliferation of human stomach cancer cells to a remarkable extent"}, {"measurement": "Total colony area (mm^2) of tumor cells", "setting": "[2]; final concentration of the test compound 1 nM", "result": 2795, "unit": "mm^2"}, {"measurement": "Total colony area (mm^2) of tumor cells", "setting": "[2]; final concentration of the test compound 10 nM", "result": 2018, "unit": "mm^2"}, {"measurement": "Total colony area (mm^2) of tumor cells", "setting": "[2]; final concentration of the test compound 100 nM", "result": 1352, "unit": "mm^2"}, {"measurement": "Total colony area (mm^2) of tumor cells", "setting": "[2]; final concentration of the test compound 1 μM", "result": 933, "unit": "mm^2"}, {"measurement": "Total colony area (mm^2) of tumor cells", "setting": "[2]; final concentration of the test compound 10 μM", "result": 768, "unit": "mm^2"}, {"measurement": "GI (%) inhibitory growth rate of the tumor", "setting": "[3]", "result": 57, "unit": "%"}]}]}
